ChEMBL document CHEMBL5233261, “Recent accomplishments on the synthetic/biological facets of pharmacologically active 1H-1,2,3-triazoles” (Eur J Med Chem, 2021)
Values after ≈ are worked out from the molar mass of the structure shown. Values joined by “and” are separate entries in the source; they are usually repeats but may differ in a detail not shown here. Identical values can stand only once.

What was measured:
[1] = system: Pseudomonas aeruginosa; test: Antibacterial activity against Pseudomonas aeruginosa ATCC 27853 strain assessed as bacterial growth inhibition incubated for 24 hrs; format: functional
[2] = system: A549; test: Anticancer activity against human A549 cells assessed as cell growth inhibition incubated for 48 hrs by SRB assay; format: functional, cell-based; details: A549, 48 h
[3] = system: HCT-116; test: Anticancer activity against human HCT-116 cells assessed as cell growth inhibition incubated for 48 hrs by SRB assay; format: functional, cell-based; details: HCT-116, 48 h
[4] = system: MCF7; test: Anticancer activity against human MCF7 cells assessed as cell growth inhibition incubated for 48 hrs by SRB assay; format: functional, cell-based; details: MCF7, 48 h
[5] = system: HT-29; test: Anticancer activity against human HT-29 cells assessed as cell growth inhibition incubated for 48 hrs by SRB assay; format: functional, cell-based; details: HT-29, 48 h
[6] = system: MCF7; test: Anticancer activity against human MCF7 cells assessed as cell growth inhibition incubated for 48 hrs by MTT assay; format: functional, cell-based; details: MCF7, 48 h
[7] = system: Plasmodium berghei; test: In vivo antimalarial activity against Plasmodium berghei infected in swiss albino mouse at 50 microg/kg, ip administered as single dose for 4 to 6 weeks relative to control; format: functional; details: dose 50 µg/kg, time 4-6 weeks
[8] = system: Plasmodium falciparum; test: Antimalarial activity against Plasmodium falciparum 3D7 strain incubated for 40 hrs by Giemsa staining based microscopic analysis; format: functional, organism-based; details: 3D7, 40 h
[9] = system: Plasmodium falciparum; test: Antimalarial activity against Plasmodium falciparum RKL-2 strain incubated for 40 hrs by Giemsa staining based microscopic analysis; format: functional, organism-based; details: RKL-2, 40 h
[10] = system: MDA-MB-231; test: Anticancer activity against human MDA-MB-231 cells assessed as cell growth inhibition incubated for 48 hrs by MTT assay; format: functional, cell-based; details: MDA-MB-231, 48 h
[11] = system: Enterococcus faecalis; test: Antibacterial activity against Enterococcus faecalis ATCC 29212 strain assessed as bacterial growth inhibition incubated for 24 hrs; format: functional
[12] = system: MCF7; test: Potency index, ratio of Tamoxifen IC50 to test compound IC50 for cytotoxicity against human MCF7 cells by MTT assay; format: functional
[13] = system: MCF7; test: Anticancer activity against human MCF7 cells assessed as cell growth inhibition incubated for 72 hrs by MTT assay; format: functional, cell-based; details: MCF7, 72 h
[14] = system: HeLa; test: Anticancer activity against human HeLa cells assessed as cell growth inhibition incubated for 72 hrs by MTT assay; format: functional, cell-based
[15] = system: MDA-MB-231; test: Anticancer activity against human MDA-MB-231 cells assessed as cell growth inhibition by MTT assay; format: functional, cell-based
[16] = system: MCF7; test: Anticancer activity against human MCF7 cells assessed as cell growth inhibition by MTT assay; format: functional, cell-based
[17] = system: HEK293; test: Anticancer activity against human HEK293 cells assessed as cell growth inhibition by MTT assay; format: functional
[18] = system: Mycobacterium tuberculosis; test: Antibacterial activity against Mycobacterium tuberculosis H37Rv ATCC 27294 strain assessed as bacterial growth inhibition by MABA Assay; format: functional
[19] = system: DU-145; test: Anticancer activity against human DU-145 cells assessed as cell growth inhibition by MTT assay; format: functional, cell-based
[20] = system: Mycobacterium tuberculosis; test: Antibacterial activity against Mycobacterium tuberculosis H37Ra ATCC 25177 assessed as bacterial growth inhibition by XTT Reduction Menadione Assay; format: functional
[21] = system: MDA-MB-231; test: Potency index, ratio of Tamoxifen IC50 to test compound IC50 for cytotoxicity against human MDA-MB-231 cells by MTT assay; format: functional
[22] = system: Escherichia coli; test: Antibacterial activity against Escherichia coli assessed as bacterial growth inhibition incubated for 24 hrs by agar well diffusion assay; format: functional
[23] = system: Mycobacterium tuberculosis; test: Antibacterial activity against Mycobacterium tuberculosis H37Rv strain assessed as bacterial growth inhibition incubated for 7 days by Resazurin Microtiter Assay; format: functional; details: 168 h, time 7 day
[24] = system: Bacillus subtilis; test: Antibacterial activity against Bacillus subtilis assessed as bacterial growth inhibition incubated for 24 hrs by agar well diffusion assay; format: functional
[25] = system: Staphylococcus aureus; test: Antibacterial activity against Staphylococcus aureus assessed as bacterial growth inhibition incubated for 24 hrs by agar well diffusion assay; format: functional
[26] = system: Pseudomonas aeruginosa; test: Antibacterial activity against Pseudomonas aeruginosa assessed as bacterial growth inhibition incubated for 12 hrs by well plate assay; format: functional
[27] = system: Klebsiella pneumoniae; test: Antibacterial activity against Klebsiella pneumoniae assessed as bacterial growth inhibition incubated for 12 hrs by well plate assay; format: functional
[28] = system: Staphylococcus epidermidis; test: Antibacterial activity against Staphylococcus epidermidis assessed as bacterial growth inhibition incubated for 12 hrs by well plate assay; format: functional
[29] = system: Staphylococcus aureus; test: Antibacterial activity against Staphylococcus aureus assessed as bacterial growth inhibition incubated for 12 hrs by well plate assay; format: functional
[30] = system: Staphylococcus aureus; test: Antibacterial activity against Staphylococcus aureus ATCC 6538P strain assessed as bacterial growth inhibition; format: functional
[31] = system: Candida albicans; test: Antifungal activity against Candida albicans NRRL Y-477 strain assessed as […] growth inhibition; format: functional
[32] = system: Escherichia coli; test: Antibacterial activity against Escherichia coli ATCC 853 strain assessed as bacterial growth inhibition; format: functional
[33] = system: Proteus vulgaris; test: Antibacterial activity against Proteus vulgaris ATCC 7829 strain assessed as bacterial growth inhibition; format: functional
[34] = system: Aspergillus fumigatus; test: Antifungal activity against Aspergillus fumigatus ATCC 13073 strain assessed as […] growth inhibition; format: functional
[35] = system: Bacillus cereus; test: Antibacterial activity against Bacillus cereus ATCC 11778 strain assessed as bacterial growth inhibition; format: functional
[36] = system: Plasmodium falciparum; test: Antimalarial activity against Plasmodium falciparum 3D7 strain by MSF assay; format: functional, organism-based
[37] = system: Staphylococcus epidermidis; test: Antibacterial activity against Staphylococcus epidermidis assessed as bacterial growth inhibition; format: functional
[38] = system: Pseudomonas aeruginosa; test: Antibacterial activity against Pseudomonas aeruginosa assessed as bacterial growth inhibition; format: functional
[39] = system: Aspergillus niger; test: Antifungal activity against Aspergillus niger assessed as […] growth inhibition; format: functional
[40] = system: Escherichia coli; test: Antibacterial activity against Escherichia coli assessed as bacterial growth inhibition; format: functional
[41] = system: Candida albicans; test: Antifungal activity against Candida albicans assessed as […] growth inhibition; format: functional
[42] = system: Bacillus subtilis; test: Antibacterial activity against Bacillus subtilis assessed as bacterial growth inhibition; format: functional

Compound: CCOP(=O)(CCCCn1cc(Cn2cnc3ccccc3c2=O)nn1)OCC
- MIC [1]: 0.625 µg/mL (≈ 1.49 µM)

Compound: Cc1ccc(-c2nn(-c3ccccc3)cc2/C=C/C(=O)OCc2cn(-c3ccc([N+](=O)[O-])cc3)nn2)cc1
- IC50 [2]: 1960 nM
- IC50 [3]: 3590 nM
- IC50 [4]: 1760 nM
- IC50 [5]: 4490 nM

Compound: N#CC1=C(N)Oc2cc3c(cc2C12C(=O)N(Cc1cn(Cc4ccc([N+](=O)[O-])cc4)nn1)c1ccccc12)[nH]c1ccccc13 (stereo unspecified)
- IC50 [6]: 2130 nM

Compound: C[C@H]1[C@H](N=[N+]=[N-])O[C@@H]2O[C@]3(C)CC[C@H]4[C@H](C)CC[C@@H]1[C@@]24OO3
- Activity [7]: 59%
- IC50 [8]: 0.066 µg/mL (≈ 0.213 µM)
- IC50 [9]: 0.865 µg/mL (≈ 2.8 µM)

Compound: CCC(C)n1cc(CN2C(=O)C3(C(C#N)=C(N)Oc4cc5c(cc43)[nH]c3ccccc35)c3ccccc32)nn1 (stereo unspecified)
- IC50 [10]: 2130 nM

Compound: CCOP(=O)(CCn1cc(Cn2cnc3ccccc3c2=O)nn1)OCC
- MIC [11]: 0.625 µg/mL (≈ 1.6 µM)

Compound: O=C1C(=O)N(CCn2cc(COCCOc3ccc(/C(=C(/CCCl)c4ccccc4)c4ccccc4)cc3)nn2)c2c(Br)cc(Br)cc21
- Ratio IC50 [12]: 30

Compound: Cc1ccc(-n2cc(CSc3nnc(C(C)c4ccc(CC(C)C)cc4)o3)nn2)c(C)c1 (stereo unspecified)
- IC50 [13]: 31 µg/mL (≈ 69.3 µM)
- IC50 [14]: 27.5 µg/mL (≈ 61.4 µM)

Compound: O=C1C(=O)N(Cc2cn(CC/C(=C(\c3ccccc3)c3ccc(OCCO)cc3)c3ccccc3)nn2)c2c(Br)cc(Br)cc21
- IC50 [15]: 19200 nM
- IC50 [16]: 31600 nM
- IC50 [17]: >100000 nM

Compound: COc1ccc2nc(Cl)c(C(=O)NCc3cn(CC(=O)c4ccc(F)cc4)nn3)cc2c1
- MIC [18]: 1.6 µg/mL (≈ 3.53 µM)

Compound: COc1cc([C@H]2c3cc4c(cc3[C@H](OCc3cn([C@@H]5O[C@H](COC(C)=O)[C@@H](OC(C)=O)[C@H](OC(C)=O)[C@H]5OC(C)=O)nn3)[C@@H]3COC(=O)[C@@H]23)OCO4)cc(OC)c1OC
- IC50 [19]: 1020 nM

Compound: CC(=O)Nc1ccc(N2C=C(C(c3c[nH]c4ccc(Br)cc34)c3c[nH]c4ccc(Br)cc34)NN2)cc1
- MIC [20]: 3 µg/mL and 1 µg/mL

Compound: Cc1ncc([N+](=O)[O-])n1Cc1cn(CCCCCN2C(=O)C(=O)c3cc(Cl)ccc32)nn1
- Ratio IC50 [12]: 2
- Ratio IC50 [21]: 5

Compound: Cc1cc(=O)oc2cc(OCc3cn(CCCCCCn4cc(COc5cc6oc(=O)cc(C)c6cc5Cl)nn4)nn3)c(Cl)cc12
- inhibition zone (IZ) [22]: 14 mm
- MIC [23]: 1.56 µg/mL (≈ 2.34 µM)
- inhibition zone (IZ) [24]: 19 mm
- inhibition zone (IZ) [25]: 16 mm

Compound: COc1ccccc1/N=C/c1c(OCc2cn(CCC[Si]34OCCN(CCO3)CCO4)nn2)ccc2ccccc12
- MIC [26]: 106 µg/mL (≈ 185 µM)
- MIC [27]: 106 µg/mL (≈ 185 µM)
- MIC [28]: 26.5 µg/mL (≈ 46.2 µM)
- MIC [29]: 26.5 µg/mL (≈ 46.2 µM)

Compound: COc1ccccc1-n1cc(COc2ccc(-c3nc(-c4ccccc4)c(-c4ccccc4)n3Cc3cn(-c4ccccc4OC)nn3)cc2)nn1
- MIC [30]: 13.8 µM (≈ 9.46 µg/mL)
- MIC [31]: 13.8 µM (≈ 9.46 µg/mL)
- MIC [32]: 13.8 µM (≈ 9.46 µg/mL)
- MIC [33]: 13.8 µM (≈ 9.46 µg/mL)
- MIC [34]: 13.8 µM (≈ 9.46 µg/mL)
- MIC [35]: 13.8 µM (≈ 9.46 µg/mL)

Compound: O=C(CCl)NCCNc1ccnc2cc(Cl)ccc12
- IC50 [36]: 38.8 nM

Compound: COc1ccc2nc(Cl)c(C(=O)NCc3cn(Cc4ccc(C#N)cc4)nn3)cc2c1
- MIC [18]: 1.6 µg/mL (≈ 3.7 µM)

Compound: O=C(Cn1cc(-c2cccc(F)c2)nn1)Nc1ccc(F)cc1
- MIC [37]: 0.0199 umol/cm3
- MIC [38]: 0.0199 umol/cm3
- MIC [39]: 0.0199 umol/cm3
- MIC [40]: 0.0199 umol/cm3
- MIC [41]: 0.0199 umol/cm3
- MIC [42]: 0.0199 umol/cm3

Compound: O=C(Cn1cc(-c2ccccc2)nn1)Nc1ccc(F)cc1
- MIC [37]: 0.201 umol/cm3
- MIC [38]: 0.201 umol/cm3
- MIC [39]: 0.201 umol/cm3
- MIC [40]: 0.201 umol/cm3
- MIC [41]: 0.201 umol/cm3
- MIC [42]: 0.201 umol/cm3

Compound: COc1ccc(Cn2cc(CNC(=O)c3cc4cc(OC)ccc4nc3Cl)nn2)cc1
- MIC [18]: 1.6 µg/mL (≈ 3.65 µM)
